What was measured:
[1] = target: GDP-bound NRAS wild-type protein (Homo sapiens, UniProt P01111); assay: Binding to NRAS by surface plasmon resonance (SPR), Single Cycle Kinetics; conditions: KD ratio NRAS/KRAS, SPR
[2] = target: GDP-bound HRAS wild-type protein (Homo sapiens, UniProt P01112); assay: Binding to HRAS by surface plasmon resonance (SPR), Single Cycle Kinetics; conditions: KD ratio HRAS/KRAS, SPR
Sequence of GDP-bound HRAS wild-type protein (P01112 whole entry): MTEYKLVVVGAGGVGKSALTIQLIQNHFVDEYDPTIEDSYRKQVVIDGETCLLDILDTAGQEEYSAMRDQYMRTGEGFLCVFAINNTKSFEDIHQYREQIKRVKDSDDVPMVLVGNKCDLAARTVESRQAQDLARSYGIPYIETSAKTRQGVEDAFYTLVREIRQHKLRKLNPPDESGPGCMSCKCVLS

Sequence of GDP-bound NRAS wild-type protein (P01111 whole entry): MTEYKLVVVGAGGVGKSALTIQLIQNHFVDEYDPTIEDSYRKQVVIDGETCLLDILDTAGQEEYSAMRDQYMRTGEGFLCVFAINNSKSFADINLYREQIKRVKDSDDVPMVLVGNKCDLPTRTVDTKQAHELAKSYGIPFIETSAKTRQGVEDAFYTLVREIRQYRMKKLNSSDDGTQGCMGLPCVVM

| SMILES | NRAS/KRAS (ratio of KD value with respect to GDP-bound NRAS wild-type protein to KD value with respect to KRAS) [1] | HRAS/KRAS (ratio of KD value with respect to GDP-bound HRAS wild-type protein to KD value with respect to KRAS) [2] |
| --- | --- | --- |
| CC[C@H](C)[C@@H]1NC(=O)[C@H](CC(C)C)N(C)C(=O)C[C@@H](C(=O)N2CCOCC2)N(C)C(=O)[C@H](C2CCCC2)N(C)C(=O)C2(CCCC2)NC(=O)[C@@H]2CCCN2C(=O)[C@H](CCc2ccc(C(F)(F)F)c(Cl)c2)NC(=O)CN(C)C(=O)[C@H](Cc2ccc(F)cc2)N2CCCC[C@@H](C2=O)N(C)C(=O)CN(C)C1=O [PP0530] | C (A compound having a KD ratio of 0.1 or more and less than 3 is denoted as C) | B (a compound having 3 or more and less than 10 is denoted as B) |
| CC[C@H](C)[C@@H]1NC(=O)[C@H](CC(C)C)N(C)C(=O)C[C@@H](C(=O)N2CCOCC2)N(C)C(=O)[C@H](C2CCCC2)N(C)C(=O)C2(CCCC2)NC(=O)[C@@H]2CCCN2C(=O)[C@H](CCc2ccc(C(F)(F)F)c(Cl)c2)NC(=O)CN(C)C(=O)[C@H](Cc2ccc(Cl)cc2)N2CCCC[C@@H](C2=O)N(C)C(=O)CN(C)C1=O [PP0532] | C (A compound having a KD ratio of 0.1 or more and less than 3 is denoted as C) | B (a compound having 3 or more and less than 10 is denoted as B) |
| CC[C@H](C)[C@@H]1NC(=O)[C@H](CC(C)C)N(C)C(=O)C[C@@H](C(=O)N2CCOCC2)N(C)C(=O)[C@H](C2CCCC2)N(C)C(=O)C2(CCCC2)NC(=O)[C@@H]2CCCN2C(=O)[C@H](CCc2ccc(C(F)(F)F)c(Cl)c2)NC(=O)CN(C)C(=O)[C@H](Cc2ccc(Cl)cc2)N2CC=CC[C@@H](C2=O)N(C)C(=O)CN(C)C1=O [PP0533] | C (A compound having a KD ratio of 0.1 or more and less than 3 is denoted as C) | C (A compound having a KD ratio of 0.1 or more and less than 3 is denoted as C) |
| CC[C@H](C)[C@@H]1NC(=O)[C@H](CC(C)C)N(C)C(=O)C[C@@H](C(=O)N2CCOCC2)N(C)C(=O)[C@H](C2CCCC2)N(C)C(=O)C2(CCCC2)NC(=O)[C@@H]2CCCN2C(=O)[C@H](CCc2ccc(C(F)(F)F)c(Cl)c2)NC(=O)CN(C)C(=O)[C@H](Cc2ccc(OC)cc2)N2CCCC[C@@H](C2=O)N(C)C(=O)CN(C)C1=O [PP0534] | B (a compound having 3 or more and less than 10 is denoted as B) | B (a compound having 3 or more and less than 10 is denoted as B) |
| CC[C@H](C)[C@@H]1NC(=O)[C@H](CC(C)C)N(C)C(=O)C[C@@H](C(=O)N2CCOCC2)N(C)C(=O)[C@H](C2CCCC2)N(C)C(=O)C2(CCCC2)NC(=O)[C@@H]2CCCN2C(=O)[C@H](CCc2ccc(C(F)(F)F)c(Cl)c2)NC(=O)CN(C)C(=O)[C@H](Cc2ccc(OC)cc2)N2CC=CC[C@@H](C2=O)N(C)C(=O)CN(C)C1=O [PP0535] | C (A compound having a KD ratio of 0.1 or more and less than 3 is denoted as C) | B (a compound having 3 or more and less than 10 is denoted as B) |
| CC[C@H](C)[C@@H]1NC(=O)[C@H](CC(C)C)N(C)C(=O)C[C@@H](C(=O)N2CCOCC2)N(C)C(=O)[C@H](C2CCCC2)N(C)C(=O)C2(CCCC2)NC(=O)[C@@H]2CCCN2C(=O)[C@H](CCc2ccc(C(F)(F)F)c(Cl)c2)NC(=O)CN(C)C(=O)[C@H](Cc2ccc(OC(F)(F)F)cc2)N2CCCC[C@@H](C2=O)N(C)C(=O)CN(C)C1=O [PP0536] | B (a compound having 3 or more and less than 10 is denoted as B) | B (a compound having 3 or more and less than 10 is denoted as B) |
| CC[C@H](C)[C@@H]1NC(=O)[C@H](CC(C)C)N(C)C(=O)C[C@@H](C(=O)N2CCOCC2)N(C)C(=O)[C@H](C2CCCC2)N(C)C(=O)C2(CCCC2)NC(=O)[C@@H]2CCCN2C(=O)[C@H](CCc2ccc(C(F)(F)F)c(Cl)c2)NC(=O)CN(C)C(=O)[C@H](Cc2ccc(OC(F)(F)F)cc2)N2CC=CC[C@@H](C2=O)N(C)C(=O)CN(C)C1=O [PP0537] | C (A compound having a KD ratio of 0.1 or more and less than 3 is denoted as C) | C (A compound having a KD ratio of 0.1 or more and less than 3 is denoted as C) |
| CC[C@H](C)[C@@H]1NC(=O)[C@H](CC(C)C)N(C)C(=O)C[C@@H](C(=O)N2CCOCC2)N(C)C(=O)[C@H](C2CCCC2)N(CC)C(=O)C2(CCCC2)NC(=O)[C@@H]2CCCN2C(=O)[C@H](CCc2cc(F)c(C(F)(F)F)c(F)c2)NC(=O)CN(C)C(=O)[C@H](Cc2ccc(C(F)(F)F)cc2)N2CCCC[C@@H](C2=O)N(C)C(=O)CN(C)C1=O [PP0538] | B (a compound having 3 or more and less than 10 is denoted as B) | B (a compound having 3 or more and less than 10 is denoted as B) |
| CC[C@H](C)[C@@H]1NC(=O)[C@H](CC(C)C)N(C)C(=O)C[C@@H](C(=O)N2CCOCC2)N(CC)C(=O)[C@H](C2CCCC2)N(C)C(=O)C2(CCCC2)NC(=O)[C@@H]2CCCN2C(=O)[C@H](CCc2cc(F)c(C(F)(F)F)c(F)c2)NC(=O)CN(C)C(=O)[C@H](Cc2ccc(C(F)(F)F)cc2)N2CCCC[C@@H](C2=O)N(C)C(=O)CN(C)C1=O [PP0539] | B (a compound having 3 or more and less than 10 is denoted as B) | B (a compound having 3 or more and less than 10 is denoted as B) |
| CC[C@H](C)[C@@H]1NC(=O)[C@H](CC(C)C)N(C)C(=O)C[C@@H](C(=O)N2CCOCC2)N(C)C(=O)[C@H](C2CCCC2)NC(=O)C2(CCCC2)NC(=O)[C@@H]2CCCN2C(=O)[C@H](CCc2cc(F)c(C(F)(F)F)c(F)c2)NC(=O)CN(C)C(=O)[C@H](Cc2ccc(C(F)(F)F)cc2)N2CCCC[C@@H](C2=O)N(C)C(=O)CN(C)C1=O [PP0540] | B (a compound having 3 or more and less than 10 is denoted as B) | B (a compound having 3 or more and less than 10 is denoted as B) |
| CC[C@H](C)[C@@H]1NC(=O)[C@H](CC(C)C)N(C)C(=O)C[C@@H](C(=O)N2CCOCC2)NC(=O)[C@H](C2CCCC2)N(C)C(=O)C2(CCCC2)NC(=O)[C@@H]2CCCN2C(=O)[C@H](CCc2cc(F)c(C(F)(F)F)c(F)c2)NC(=O)CN(C)C(=O)[C@H](Cc2ccc(C(F)(F)F)cc2)N2CCCC[C@@H](C2=O)N(C)C(=O)CN(C)C1=O [PP0541] | B (a compound having 3 or more and less than 10 is denoted as B) | B (a compound having 3 or more and less than 10 is denoted as B) |
| CC[C@H](C)[C@@H]1NC(=O)[C@H](CC(C)C)N(C)C(=O)C[C@@H](C(=O)N2CCOCC2)N(C)C(=O)[C@H](C2CCCC2)N(C)C(=O)C2(CCCC2)NC(=O)[C@@H]2CCCN2C(=O)[C@H](CCc2cc(F)c(C(F)(F)F)c(F)c2)NC(=O)CN(C)C(=O)[C@H](Cc2ccc(C(F)(F)F)cc2)N2CCCC[C@@H](C2=O)N(C)C(=O)CNC1=O [PP0542] | B (a compound having 3 or more and less than 10 is denoted as B) | B (a compound having 3 or more and less than 10 is denoted as B) |
| CC[C@H](C)[C@@H]1NC(=O)[C@H](CC(C)C)N(C)C(=O)C[C@@H](C(=O)N2CCOCC2)N(C)C(=O)[C@H](C2CCCC2)N(C)C(=O)C2(CCCC2)NC(=O)[C@@H]2CCCN2C(=O)[C@H](CCc2cc(F)c(C(F)(F)F)c(F)c2)NC(=O)CN(C)C(=O)[C@H](Cc2ccc(C(F)(F)F)cc2)N2CCCC[C@@H](C2=O)N(C)C(=O)[C@H](C)NC1=O [PP0543] | B (a compound having 3 or more and less than 10 is denoted as B) | B (a compound having 3 or more and less than 10 is denoted as B) |
| CC[C@H](C)[C@@H]1NC(=O)[C@H](CC(C)C)N(C)C(=O)C[C@@H](C(=O)N2CCOCC2)N(C)C(=O)[C@H](C2CCCC2)N(C)C(=O)C2(CCCC2)NC(=O)[C@@H]2CCCN2C(=O)[C@H](CCc2cc(F)c(C(F)(F)F)c(F)c2)NC(=O)CN(C)C(=O)[C@H](Cc2ccc(C(F)(F)F)cc2)N2CCCC[C@@H](C2=O)N(C)C(=O)[C@H](C)N(C)C1=O [PP0544] | B (a compound having 3 or more and less than 10 is denoted as B) | B (a compound having 3 or more and less than 10 is denoted as B) |
| CC[C@H](C)[C@@H]1NC(=O)[C@H](CC(C)C)N(C)C(=O)C[C@@H](C(=O)N2CCOCC2)N(C)C(=O)[C@H](C2CCCC2)N(C)C(=O)C2(CCCC2)NC(=O)[C@@H]2CCCN2C(=O)[C@H](CCc2cc(F)c(C(F)(F)F)c(F)c2)NC(=O)CN(C)C(=O)[C@H](Cc2ccc(C(F)(F)F)cc2)N2CCCC[C@@H](C2=O)N(C)C(=O)CN(CC)C1=O [PP0545] | B (a compound having 3 or more and less than 10 is denoted as B) | B (a compound having 3 or more and less than 10 is denoted as B) |

Source: US20250230193A1, “CYCLIC COMPOUND HAVING SELECTIVE KRAS INHIBITORY EFFECT ON HRAS AND NRAS” (CHUGAI SEIYAKU KABUSHIKI KAISHA, priority 2022, published 2025)
